Source: patent US20110251135A1, “INHIBITORS OF PERITONEAL SEEDING OF CANCER CELLS” (University of Utah Research Foundation, priority 2008, published 2011)
“Also recorded” adds a separate entry of the source.

Assays:
Type in all cases: cell-based, human
[1] = test system: transiently suspended Caco-2 cells; test: Apoptosis of transiently suspended cells during readhesion (annexin V assay); conditions: Caco-2 transiently suspended, treated and allowed to readhere
Description: Single cell suspensions were plated at 100,000 cells per well in 24-well plates in media containing DMSO, BAY 11-7082, BAY 11-7085, or MG-132 for 8-24 hours in an incubator. Alternatively, DMSO, BAY 11-7082, BAY 11-7085, or MG-132 were added to cells that were confluent and adherent for several days. The nonadherent cells were aspirated off with the media and spun for 3 minutes at 2,000 rpm in 15 mL polypropylene tubes. The adherent cells were washed twice with PBS, dispersed in trypsin, and spun down for 3 minutes at 2,000 rpm in 15 mL polypropylene tubes. […] 400 μL of binding buffer was added to each tube and the cells were analyzed by flow cytometry immediately. The percent of apoptosis was determined as the percent of annexin V-positive, propidium iodide-negative cells of the total cells counted.
Since trypsin can activate protease-activated receptor-2 in colon cancer cell lines, which then results in increased cell proliferation, (Darmoul et al., “Initiation of human colon cancer cell proliferation by trypsin acting at protease-activated receptor-2,” Br J Cancer 85:772-9, 2001). NF-κB activation was determined in adherent and confluent DLD-1, HCT-116, Caco-2 and HT-29 cells that were removed from plastic dishes by trypsin or scraping.

NF-κB = NF-κB binding activity assay (TRANS-AM) in HT-29 cells
Description: The transiently suspended cells were lysed and allowed to bind to DNA oligonucleotides, containing the NF-κB consensus binding site, that were immobilized to 96-well plates. NF-κB protein bound to the oligonucleotides was detected by an antibody to the p65 subunit that only recognized p65 that is bound to DNA. The positive control was HeLa cells that were stimulated with TNFα. A control was performed using excess free NF-κB oligonucleotides (Competitor). […] NF-κB binding activity was determined by the TransAM assay as in FIG. 5A. […] The data shown represent typical results of three separate experiments. […] An immunoblot for COX-2 was performed.
Activation of NF-κB was also determined using the TRANS-AM™ assay (Active Motif, Carlsbad, Calif.) per the manufacturer's instructions. (Renard et al., “Development of a sensitive multi-well colorimetric assay for active NF-κB,” Nucleic Acids Res 29, E21, 2001). Briefly, cell monolayers on 60 mm dishes were washed with ice-cold PBS and removed by incubating in trypsin-PBS or scraping. The cells were centrifuged for 10 minutes at 1,000 rpm at 4° C. and resuspended for 10 minutes in 100 μL of 4° C. lysis buffer (20 mM HEPES (pH 7.5), 350 mM NaCl, 20% glycerol, 1% Igepal-CA630, 1 mM MgCl2, 0.5 mM EDTA, 0.1 mM EGTA, 1 μL of 1 M dithiothreitol and 10 μL of protease inhibitor cocktail (proprietary) per mL of lysis buffer). The lysates were centrifuged for 20 minutes at 14,000 g at 4° C. Lysates containing 5 μg of total protein were added to 20 μL of lysis buffer per well in 96-well dishes containing immobilized oligonucleotides corresponding to the NF-κB consensus DNA binding site (SEQ ID NO:2) (5′-[…]-3′). […] 100 μL of stop solution (0.5M H2SO4) was added to each well after which the absorbance was determined on a plate spectrophotometer at 450 nm. Specificity of binding was determined using 200-fold excess wildtype NF-κB oligonucleotides added at the time the cell lysates were added to the wells.
The same NF-κB binding assay was used to determine whether NF-κB inhibitors could diminish the activation of NF-κB by readhesion. […]

DLD-1 cells = test: Soft agar colony formation assay; conditions: 10 μM for 6 days
Description: (§1) DLD-1, HCT-116, and HT-29 cells were cultured for 6 days in soft agar in the presence of DMSO (control), 10 μM BAY 11-7082, or 10 μM BAY 11-7085. The data points represent the means of colony counts per field (20×) performed in 5 different regions of the culture dishes. The data shown represent a typical result of two separate experiments. FIG. 2B and FIG. 2C are graphs that show athymic mice received subcutaneous injections of HT-29 (FIG. B) or HCT-116 (FIG. C) cells, followed by […] of BAY 11-7085 (dark bars) or DMSO (white bars) intraperitoneally twice weekly. The bars represent the 25-75% ranges of the tumor volumes and the horizontal lines in the bars are the medians. Using the Kruskal-Wallace statistical test to compare the median tumor volumes between BAY 11-7085 and DMSO yielded a p-value of 0.005 for HT-29 cells but >0.05 for HCT-116 cells.
(§2) Anchorage-independent cell growth is a hallmark of cancer cells and is a good correlation to tumorigencity in vivo. Therefore, the effects of BAY 11-7082 and BAY 11-7085 were examined on colon cancer cell growth using the soft agar colony formation assay.

HCT-116 cells = test: Soft agar colony formation assay; conditions: 10 μM for 6 days
Description: as §1, §2

**Q.** CC(C)(C)c1ccc(S(=O)(=O)/C=C/C#N)cc1 [BAY 11-7085, (2E)-3-[4-(tertiarybutylphenyl)sulfonyl]-2-propenenitrile] was tested. Which “BAY 11-7085-induced apoptosis during readhesion” value [1] did it give?
**A.** moderate increase

**Q.** What about the “constitutive NF-κB activation in adherent cells” value (NF-κB; adherent cells, increasing concentrations, up to 50 μM, 8 hours) of the same molecule?
**A.** relatively unaffected; also recorded: could not be inhibited

**Q.** And the “NF-κB activation induced by readhesion of transiently suspended colon cancer cells” value (NF-κB; as little as 10 μM BAY 11-7085)?
**A.** almost totally inhibited

**Q.** What about the “NF-κB activation caused by readhesion (TRANS-AM)” value (NF-κB; transiently suspended HT-29, increasing concentrations, 8 hours) of the same molecule?
**A.** dose-related inhibition of this NF-κB activation

**Q.** What about the anchorage-independent proliferation (DLD-1 cells) of the same molecule?
**A.** significantly inhibited

**Q.** What about the anchorage-independent proliferation (HCT-116 cells) of the same molecule?
**A.** but not HCT-116
